Results taken from the supplement of paper PMC11061612.

Key:
[1] = test system: PC-3_[JPC-3] (Lung Adenocarcinoma); assay: combination Emax (second highest fraction inhibited in the dose matrix, 72 h); higher = more inhibition; extreme values may be limits of the assay
Procedure, shortened: (§1)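 Cell lines in DMEM/F12 or RPMI with 10% FBS were plated in 1536-well plates, held 24 hours at 37°C, 5% CO2, then given two-drug dose matrices for 72 hours (DMSO typically 0.2%). Viability was read by CellTiter-Glo 2.0 luminescence and scaled as inhibition from 0 (vehicle wells) to 1 (blank wells). Combination Emax is the second-highest inhibition in the matrix; Bliss excess is observed combination effect minus expected EA + EB − EA·EB, EA and EB being single-agent effects.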

[2] = test system: CAL-120 (Breast Carcinoma); assay: as above
Procedure, shortened: as §1

[3] = test system: 23132-87 (Gastric Carcinoma); assay: as above
Procedure, shortened: as §1

[4] = test system: FADU (Head and Neck Carcinoma); assay: Bliss excess, mean over the matrix (fraction); higher = more synergy
Procedure, shortened: as §1

[5] = test system: HEC-1 (Endometrial Carcinoma); assay: as above
Procedure, shortened: as §1

[6] = test system: OAW-42 (Ovarian Carcinoma); assay: as above
Procedure, shortened: as §1

[7] = test system: HSC-39 (Gastric Carcinoma); assay: as above
Procedure, shortened: as §1

[8] = test system: LB996-RCC (Kidney Carcinoma); assay: as above
Procedure, shortened: as §1

[9] = test system: SK-PN-DW (Other Solid Carcinomas); assay: as above
Procedure, shortened: as §1

[10] = test system: PC-3_[JPC-3] (Lung Adenocarcinoma); assay: as above
Procedure, shortened: as §1

[11] = test system: CAL-120 (Breast Carcinoma); assay: as above
Procedure, shortened: as §1

[12] = test system: COLO-680N (Esophageal Squamous Cell Carcinoma); assay: as above
Procedure, shortened: as §1

WM793B (Melanoma) = assay: as above
Procedure, shortened: as §1

[13] = test system: REH (B-Lymphoblastic Leukemia); assay: as above
Procedure, shortened: as §1

[14] = test system: KE-37 (T-Lymphoblastic Leukemia); assay: as above
Procedure, shortened: as §1

SF268 (Low Grade Glioma) = assay: as above
Procedure, shortened: as §1

[15] = test system: PANC-03-27 (Pancreatic Carcinoma); assay: as above
Procedure, shortened: as §1

LN-229 (Glioblastoma) = assay: as above
Procedure, shortened: as §1

[16] = test system: OPM-2 (Plasma Cell Myeloma); assay: as above
Procedure, shortened: as §1

[17] = test system: SU-DHL-10 (B-Cell Non-Hodgkin's Lymphoma); assay: as above
Procedure, shortened: as §1
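Throughout, for Bliss excess, mean over the matrix: after 72 h of two-drug dosing.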

SMILES | combination Emax [1] | combination Emax [2] | combination Emax [3] | Bliss excess [4] | Bliss excess [5] | Bliss excess [6] | Bliss excess [7] | Bliss excess [8] | Bliss excess [9] | Bliss excess [10] | Bliss excess [11] | Bliss excess [12] | Bliss excess (WM793B (Melanoma)) | Bliss excess [13] | Bliss excess [14] | Bliss excess (SF268 (Low Grade Glioma)) | Bliss excess [15] | Bliss excess (LN-229 (Glioblastoma)) | Bliss excess [16] | Bliss excess [17]
CN(C)CCCOc1ccc(-c2ccc3ncc4c(c3c2)n(C2CCOCC2)c(=O)n4C)cn1 [AZD0156] + O=C(c1cc(Cc2n[nH]c(=O)c3ccccc23)ccc1F)N1CCN(C(=O)C2CC2)CC1 [Olaparib] (first compound max 3 µM, partner max 3 µM) | 0.181 | 0.29 | 0.644 | 0.0039 | -0.0173 | 0.0145 | 0.128 | 0.0071 | 0.0158 | -0.0349 | 0.0047 | -0.0076 | 0.0206 | 0.143 | 0.0951 | -0.0347 | -0.0236 | -0.0258 | 0.0067 | 0.11
C=CCn1c(=O)c2cnc(Nc3ccc(N4CCN(C)CC4)cc3)nc2n1-c1cccc(C(C)(C)O)n1 [AZD1775] + C1CN(CCC1(C(=O)N[C@@H](CCO)C2=CC=C(C=C2)Cl)N)C3=NC=NC4=C3C=CN4 [Capivasertib] (first compound max 3 µM, partner max 3 µM) | 0.577 | 0.727 | 0.829 | 0.0615 | -0.0424 | -0.0399 | 0.0067 | -0.0587 | 0.0265 | -0.0534 | -0.0265 | 0.0133 | -0.0157 | 0.0008 | -0.0132 | -0.009 | -0.0573 | -0.062 | 0.0001 | 0.0484
CN(CCO)CC[C@H](CSc1ccccc1)Nc1ccc(S(=O)(=O)NC(=O)c2ccc(N3CCC([C@@H](O)c4ccccc4-c4ccc(Cl)cc4)CC3)cc2)cc1S(=O)(=O)C(F)(F)F [AZD4320] + C=CCn1c(=O)c2cnc(Nc3ccc(N4CCN(C)CC4)cc3)nc2n1-c1cccc(C(C)(C)O)n1 [AZD1775] (first compound max 1 µM, partner max 1 µM) | 0.411 | 0.854 | 0.846 | 0.0213 | 0.0194 | 0.0074 | 0.0562 | 0.0405 | 0.0052 | -0.0114 | 0.0158 | 0.0065 | -0.0248 | 0.0738 | 0.0578 | 0.0042 | 0.0079 | 0.0438 | 0.0457 | 0.0069
CN(CCO)CC[C@H](CSc1ccccc1)Nc1ccc(S(=O)(=O)NC(=O)c2ccc(N3CCC([C@@H](O)c4ccccc4-c4ccc(Cl)cc4)CC3)cc2)cc1S(=O)(=O)C(F)(F)F [AZD4320] + CCN(CCO)CCCOc1ccc2c(Nc3cc(CC(=O)Nc4cccc(F)c4)[nH]n3)ncnc2c1 [AZD2811] (first compound max 1 µM, 7x7, partner max 1 µM) | 0.147 | 0.829 | 0.258 | 0.0014 | -0.0049 | -0.0359 | -0.0338 | 0.0389 | 0.0024 | -0.0598 | 0.0227 | -0.0373 | 0.0038 | 0.175 | -0.0049 | 0.0843 | 0.0197 | -0.0074 | 0.128 | -0.0949
CN(CCO)CC[C@H](CSc1ccccc1)Nc1ccc(S(=O)(=O)NC(=O)c2ccc(N3CCC([C@@H](O)c4ccccc4-c4ccc(Cl)cc4)CC3)cc2)cc1S(=O)(=O)C(F)(F)F [AZD4320] + CN(C)CCCOc1ccc(-c2ccc3ncc4c(c3c2)n(C2CCOCC2)c(=O)n4C)cn1 [AZD0156] (first compound max 1 µM, 7x7, partner max 1 µM) | 0.238 | 0.744 | 0.148 | -0.01 | -0.0414 | -0.0088 | 0.0099 | -0.0541 | -0.0302 | -0.0583 | -0.0225 | -0.028 | -0.0564 | 0.0092 | -0.0045 | -0.0012 | -0.0459 | -0.0218 | 0.0221 | -0.0158
CN(CCO)CC[C@H](CSc1ccccc1)Nc1ccc(S(=O)(=O)NC(=O)c2ccc(N3CCC([C@@H](O)c4ccccc4-c4ccc(Cl)cc4)CC3)cc2)cc1S(=O)(=O)C(F)(F)F [AZD4320] + C[C@@H]1COCCN1C2=NC(=NC(=C2)C3(CC3)[S@](=N)(=O)C)C4=C5C=CNC5=NC=C4 [AZD6738] (first compound max 1 µM, 7x7, partner max 10 µM) | 0.375 | 0.757 | 0.84 | -0.0165 | 0.0028 | -0.0315 | -0.0108 | -0.0179 | -0.0551 | -0.0469 | -0.0313 | -0.0302 | -0.0406 | 0.0532 | -0.0133 | 0.023 | -0.0392 | 0.0358 | -0.0534 | 0.0076
CN(CCO)CC[C@H](CSc1ccccc1)Nc1ccc(S(=O)(=O)NC(=O)c2ccc(N3CCC([C@@H](O)c4ccccc4-c4ccc(Cl)cc4)CC3)cc2)cc1S(=O)(=O)C(F)(F)F [AZD4320] + C[C@@H](Nc1cc(F)cc(F)c1)c1cc(C(=O)N(C)C)cc2c(=O)cc(N3CCOCC3)oc12 [AZD8186] (first compound max 1 µM, 7x7, partner max 3 µM) | 0.562 | 0.735 | 0.74 | 0.041 | 0.0133 | 0.0688 | 0.0229 | 0.0394 | -0.0087 | -0.0176 | 0.0037 | 0.0088 | 0.0434 | 0.0353 | 0.0866 | 0.014 | 0.0439 | 0.0166 | 0.0851 | 0.0092
CN(CCO)CC[C@H](CSc1ccccc1)Nc1ccc(S(=O)(=O)NC(=O)c2ccc(N3CCC([C@@H](O)c4ccccc4-c4ccc(Cl)cc4)CC3)cc2)cc1S(=O)(=O)C(F)(F)F [AZD4320] + Cc1cc2ncnn2cc1Nc1ncc2c(n1)n(C1CCOCC1)c(=O)n2C [AZD7648] (first compound max 1 µM, 7x7, partner max 10 µM) | 0.243 | 0.748 | 0.2 | -0.016 | -0.0402 | -0.0118 | 0.0221 | -0.0232 | -0.0411 | -0.0635 | -0.0367 | -0.0437 | -0.0234 | 0.0041 | 0.0363 | -0.0371 | -0.061 | -0.0393 | 0.0418 | 0.0212
CN(CCO)CC[C@H](CSc1ccccc1)Nc1ccc(S(=O)(=O)NC(=O)c2ccc(N3CCC([C@@H](O)c4ccccc4-c4ccc(Cl)cc4)CC3)cc2)cc1S(=O)(=O)C(F)(F)F [AZD4320] + Cn1cnc2c(F)c(Nc3ccc(Br)cc3Cl)c(C(=O)NOCCO)cc21 [Selumetinib] (first compound max 1 µM, 7x7, partner max 3 µM) | 0.571 | 0.8 | 0.615 | 0.183 | -0.018 | -0.0115 | 0.0414 | -0.0445 | -0.0198 | 0.0339 | 0.0577 | 0.0047 | 0.0604 | -0.0369 | 0.0464 | 0.0069 | 0.0406 | 0.0585 | 0.0683 | 0.0912
COc1nnc2ccc(N3CCC(c4ccc(OCCN5CCN(C)C(=O)[C@H]5C)cc4)CC3)nn12 [AZD5153] + C=CCn1c(=O)c2cnc(Nc3ccc(N4CCN(C)CC4)cc3)nc2n1-c1cccc(C(C)(C)O)n1 [AZD1775] (first compound max 1 µM, partner max 1 µM) | 0.58 | 0.489 | 0.636 | -0.0273 | 0.0363 | -0.0338 | -0.0516 | -0.052 | -0.0722 | -0.06 | -0.0176 | -0.0746 | -0.0265 | -0.0291 | 0.0096 | 0.0037 | -0.152 | -0.039 | -0.0366 | -0.0044
COc1nnc2ccc(N3CCC(c4ccc(OCCN5CCN(C)C(=O)[C@H]5C)cc4)CC3)nn12 [AZD5153] + CC1(C)CCC(CN2CCN(c3ccc(C(=O)NS(=O)(=O)c4ccc(NCC5CCOCC5)c([N+](=O)[O-])c4)c(Oc4cnc5[nH]ccc5c4)c3)CC2)=C(c2ccc(Cl)cc2)C1 [Venetoclax] (first compound max 1 µM, 7x7, partner max 1 µM) | 0.364 | 0.336 | 0.141 | -0.0492 | -0.0443 | -0.0201 | 0.0439 | -0.0178 | -0.0998 | -0.111 | -0.0434 | -0.0372 | -0.0525 | -0.136 | -0.0133 | -0.128 | -0.0422 | -0.0496 | 0.0082 | -0.0221
COc1nnc2ccc(N3CCC(c4ccc(OCCN5CCN(C)C(=O)[C@H]5C)cc4)CC3)nn12 [AZD5153] + CCN(CCO)CCCOc1ccc2c(Nc3cc(CC(=O)Nc4cccc(F)c4)[nH]n3)ncnc2c1 [AZD2811] (first compound max 1 µM, 7x7, partner max 1 µM) | 0.425 | 0.441 | 0.173 | -0.0529 | -0.0176 | -0.0491 | -0.006 | -0.106 | -0.0677 | -0.0306 | 0.0045 | -0.0833 | -0.0567 | -0.0891 | -0.0085 | -0.0592 | -0.0487 | 0.0112 | 0.0194 | -0.049
COc1nnc2ccc(N3CCC(c4ccc(OCCN5CCN(C)C(=O)[C@H]5C)cc4)CC3)nn12 [AZD5153] + C[C@@H]1COCCN1C2=NC(=NC(=C2)C3(CC3)[S@](=N)(=O)C)C4=C5C=CNC5=NC=C4 [AZD6738] (first compound max 1 µM, 7x7, partner max 10 µM) | 0.5 | 0.589 | 0.594 | 0.0155 | 0.0625 | 0.0752 | -0.0055 | -0.0142 | -0.0638 | 0.0651 | 0.0309 | 0.0046 | -0.0158 | -0.0059 | 0.0286 | 0.0311 | -0.091 | 0.0224 | -0.0245 | -0.038
